# Key:
# Assay type in all cases: physicochemical
# Pour Point, ASTM D-97 = experiment: Pour Point, ASTM D-97
# Flash Point, ASTM D-92 = experiment: Flash Point, ASTM D-92
# [1] = Kinematic viscosity, ASTM D-445
substance,measurement,setting,value
trimethylolpropane trioleate [EMERY® 2964],"Pour Point, ° C.","Pour Point, ASTM D-97",−40 °C
same,"Flash Point, ° C.","Flash Point, ASTM D-92",312 °C
same,"Viscosity, cSt 40° C.",[1]; 40° C.,48.43 cSt
same,"Viscosity, cSt 100° C.",[1]; 100° C.,10.17 cSt
